Patent publication US20160317654A1, “COMBINATION THERAPY WITH RAR ALPHA AGONISTS FOR ENHANCING TH1 RESPONSE” (King's College London, priority 2015, published 2016)

System: fully committed Th1 cells
Experiment: Secondary repolarisation of sorted IFN-γ (eYFP+) Th1 cells under Th1 conditions in the presence of RAR inhibitor or vehicle
Assay type: cell-based, mouse
Conditions: IFN-γ (eYFP+) Th1 cells sorted day 7, restimulated under Th1 conditions for 5 days with LE540 (1 μM) vs vehicle (DMSO)
Method: Experimental conditions were as follows. Naïve CD4^+CD25^negCD44^loCD62L^hi T-cells were isolated by cell sorting by FACSAria (BD) after enrichment with a CD4^+ T-cell negative selection kit (Miltenyi Biotec). T-cell depleted splenocytes were prepared using a CD3^+ microbead selection kit (Miltenyi Biotec) followed by irradiation at 3000 rad. Naïve CD4+ T-cells were cultured for 3 days with irradiated T-cell-depleted splenocytes at a ratio of 1:5 in the presence of 5 μg/ml of anti-CD3 (145-2C11) under Th0 cell conditions (IL-2 100 IU/ml, anti-IL-4 (11B11) and anti-IFN-γ (XMG 1.2), 10 μg/ml each); Th1 cell conditions (100 IU/ml of IL-2, 10 ng/ml of IL-12, and anti-IL-4); Th2 cell conditions (100 IU/ml of IL-2, 10 ng/ml of IL-4, anti-IL-12 (C17.8), and anti-IFN-γ (XMG 1.2); or Th17 cell conditions, 5 ng/ml TGFβ, 20 ng/ml IL-6, 10 ng/ml IL-1β, anti-IL-4, and anti-IFN-γ). Cells were expanded for an additional 3-4 days. Where indicated, 10 ng/ml IFN-γ or 10 μg/ml anti-IFN-γ was added. In secondary repolarisation assays, where specified, LE540 (1 μM) or DMSO (vehicle control) was added to the media. Cytokines were from R&D. Anti-CD3 was from BioXcell and other antibodies were from BD Biosciences. All cell cultures were performed in complete RPMI containing 10% fetal bovine serum (FBS), 55 µM β-mercaptoethanol, HEPES, non-essential amino acids, glutamine, penicillin and streptomycin.
For analysis of cytokine production, cells were restimulated with 100 ng/ml phorbol 12-myristate 13-acetate (PMA) and 500 ng/ml ionomycin in the presence of monensin for 4-5 h at 37° C. in a tissue culture incubator. Cell surface staining was carried out in PBS with 2% FBS. For live cell analysis or cell sorting, dead cells were excluded by staining with SYTOX blue (Invitrogen). […] Data were collected with a LSR Fortessa (BD) and results were analyzed with FlowJo software (Tree Star). […]

CN1c2cc3c(cc2N=C(c2ccc(C(=O)O)cc2)c2ccc4ccccc4c21)C(C)(C)CCC3(C)C [LE540]
Intracellular IFN-γ expression following PMA and ionomycin stimulation (FIG. 12B): modest reductions in IFN-γ expression
Intracellular expression of RORγt (flow cytometry, FIG. 4B): emergence of cells co-expressing RORγt
Intracellular expression of T-bet (flow cytometry, FIG. 4B): down-regulation of T-bet
